Measured values as given in US7342030B2, “Indole derivatives” (Hoffmann-La Roche Inc., priority 2004, dated 2008).

System: HEK293 cells
Assay: Viability Assay of HEK293 Cells (CellTiter-Glo Luminescent Cell Viability Assay)
Type: cell-based
Conditions: Homo sapiens, 7 days (168 h) incubation, compounds 3 μM to 0.00015 μM, ATP luminescence
Description: Viability Assay of HEK293 Cells
A viability assay was performed using the CellTiter-Glo® Luminescent Cell Viability Assay (see Promega Corporation's Technical Bulletin No. 288, pp. 1-11 [revised 2/04] which is hereby incorporated by reference in its entirety). This assay is a homogeneous method of determining the number of viable cells in culture based on quantitation of the ATP present, an indicator of metabolically active cells. The assay is designed for use with multiwell formats, making it ideal for automated high-throughput screening (HTS), cell proliferation and cytotoxicity assays. The homogeneous assay procedure involves adding a single reagent (containing luciferase, luciferan substrate, and buffer) directly to cells cultured in serum-supplemented medium. Cell washing, removal of medium and multiple pipetting steps are not required. The system detects as few as 15 cells/well in a 384-well format in 10 minutes after adding reagent and mixing.
The homogeneous “add-mix-measure” format results in cell lysis and generation of a luminescent signal proportional to the amount of ATP present. The amount of ATP is directly proportional to the number of cells present in culture. The above-referenced assay generates a “glow-type” luminescent signal, produced by the luciferase reaction, which has a half-life generally greater than five hours, depending on cell type and medium used. The extended half-life eliminates the need to use reagent injectors and provides flexibility for continuous or batch mode processing of multiple plates. The unique homogeneous format avoids errors that may be introduced by other ATP measurement methods that require multiple steps.
HEK293 cells (human embryonic kidney cell line transformed by Adenovirus 5 fragments, ATCC-No. CRL 1573) were cultivated in Dulbecco's Modified Eagle Medium (D-MEM) (1×) liquid (high glucose) (which includes L-Alanyl-L-Glutamine [a stabilized a form of L-Glutamine], 4500 mg/L glucose, and 110 mg/L sodium pyruvate) from Invitrogen Coropration (Invitrogen Catalog Number 31966-021 [now 10569-010] which is hereby incorporated by reference), 5% Fetal Calf Serum (FCS, Sigma Cat-No. F4135 (FBS)), 100 Units/ml penicillin/100 μg/ml streptomycin (=Pen/Strep from Invitrogen Cat. No. 15140). For the assay the cells were seeded in 384 well plates, 5000 cells per well, in the same medium. The next day the test compounds were added in various concentrations ranging from 3 μM to 0.00015 μM (10 concentrations, 1:3 diluted).
After 7 days the above viability assay was performed in accordance with the following steps: • Step 1: The cell-plate was equilibrated to room temperature for approximately 30 minutes and than the assay reagent was added. • Step 2: The contents were carefully mixed for 15 minutes to induce cell lysis. • Step 3: After 45 minutes the luminescent signal was measured in Victor 2, (a scanning multiwell spectrophotometer, Wallac). Details:
Medium: Dulbecco's Modified Eagle Medium (D-MEM) (1×) liquid (high glucose) (which includes L-Alanyl-L-Glutamine [a stabilized a form/source of L-Glutamine], 4500 mg/L glucose, and 110 mg/L sodium pyruvate) from Invitrogen Coropration (Invitrogen Catalog Number 31966-021 [now 10569-010] which is hereby incorporated by reference in its entirety), 5% Fetal Calf Serum (FCS, Sigma Cat-No. F4135 [FBS] which is hereby incorporated by reference in its entirety), Pen/Strep contaning 100 Units/ml penicillin/100 μg/ml streptomycin (Invitrogen Catalog Number 15140, which is hereby incorporated by reference in its entirety). —HEK293 (ATCC-No. CRL 1573): 5000 cells in 60 μl per well of 384 well plate (Greiner 781098, white plates) • Incubate 24 h at 37° C., 5% CO2
2. Day: Induction (Substance Testing): […]

SMILES: Clc1ccc2[nH]c(-c3nc(COc4ccc(CCCCn5ccnn5)cc4)co3)cc2c1 [Example 2, 5-Chloro-2-{4-[4-(4-[1,2,3]triazol-1-yl-butyl)-phenoxymethyl]-oxazol-2-yl}-1H-indole]
- IC50: 0.0001 to 0.05 µM

SMILES: FC(F)(F)Oc1ccc2[nH]c(-c3nc(COc4ccc(CCCCn5ccnn5)cc4)co3)cc2c1 [Example 1, 2-{4-[4-(4-[1,2,3]Triazol-1-yl-butyl)-phenoxymethyl]-oxazol-2-yl}-5-trifluoromethoxy-1H-indole]
- IC50: 0.0001 to 0.05 µM

SMILES: Clc1ccc2cc(-c3nc(COc4cccc(CCCn5ccnn5)c4)co3)[nH]c2c1 [Example 16, 6-Chloro-2-{4-[3-(3-[1,2,3]triazol-1-yl-propyl)-phenoxymethyl]-oxazol-2-yl}-1H-indole]
- IC50: 0.0001 to 0.05 µM

SMILES: Cc1cc(NCc2coc(-c3cc4cc(Cl)ccc4[nH]3)n2)ccc1CCCCn1ccnn1 [Example 29, [2-(5-Chloro-1H-indol-2-yl)-oxazol-4-ylmethyl]-[3-methyl-4-(4-[1,2,3]triazol-1-yl-butyl)-phenyl]-amine]
- IC50: 0.0001 to 0.05 µM

SMILES: Fc1ccc2[nH]c(-c3nc(CNc4ccc(CCCCn5ccnn5)c(F)c4)co3)cc2c1 [Example 32, [2-(5-Fluoro-1H-indol-2-yl)-oxazol-4-ylmethyl]-[3-fluoro-4-(4-[1,2,3]triazol-1-yl-butyl)-phenyl]-amine]
- IC50: 0.0001 to 0.05 µM

SMILES: [O-][S+](CCn1ccnn1)Cc1ccc(OCc2coc(-c3cc4cc(F)ccc4[nH]3)n2)cc1 (stereo not drawn) [Example 13, 5-Fluoro-2-{4-[4-(2-[1,2,3]triazol-1-yl-ethanesulfinylmethyl)-phenoxymethyl]-oxazol-2-yl}-1H-indole]
- IC50: 0.05 to 0.5 µM

SMILES: Cc1cc(OCc2coc(-c3cc4cc(F)ccc4[nH]3)n2)ccc1CCCCn1ccnn1 [Example 7, 5-Fluoro-2-{4-[3-methyl-4-(4-[1,2,3]triazol-1-yl-butyl)-phenoxymethyl]-oxazol-2-yl}-1H-indole]
- IC50: 0.0001 to 0.05 µM

SMILES: Clc1ccc2[nH]c(-c3nc(COc4ccc(COCCn5ccnn5)cc4)cs3)cc2c1 [Example 18, 5-Chloro-2-{4-[4-(2-[1,2,3]triazol-1-yl-ethoxymethyl)-phenoxymethyl]-thiazol-2-yl}-1H-indole]
- IC50: 0.05 to 0.5 µM

SMILES: Fc1ccc2[nH]c(-c3nc(COc4ccc(CCCCn5ccnn5)cc4)co3)cc2c1 [Example 3, 5-Fluoro-2-{4-[4-(4-[1,2,3]triazol-1-yl-butyl)-phenoxymethyl]-oxazol-2-yl}-1H-indole]
- IC50: 0.0066 µM

SMILES: Fc1ccc2[nH]c(-c3nc(CNc4ccc(CCCCn5ccnn5)nc4)co3)cc2c1 [Example 38, [2-(5-Fluoro-1H-indol-2-yl)-oxazol-4-ylmethyl]-[6-(4-[1,2,3]triazol-1-yl-butyl)-pyridin-3-yl]-amine]
- IC50: 0.05 to 0.5 µM

SMILES: FC(F)(F)Oc1ccc2[nH]c(-c3nc(COc4cccc(CCCn5ccnn5)c4)co3)cc2c1 [Example 14, 2-{4-[3-(3-[1,2,3]Triazol-1-yl-propyl)-phenoxymethyl]-oxazol-2-yl}-5-trifluoromethoxy-1H-indole]
- IC50: 0.5 to 1 µM

SMILES: Fc1ccc2cc(-c3nc(CNc4ccc(CCCCn5ccnn5)cc4)co3)[nH]c2c1 [Example 23, [2-(6-Fluoro-1H-indol-2-yl)-oxazol-4-ylmethyl]-[4-(4-[1,2,3]triazol-1-yl-butyl)-phenyl]-amine]
- IC50: 0.0001 to 0.05 µM

SMILES: Fc1ccc2cc(-c3nc(COc4ccc(CCCCn5ccnn5)cc4)co3)[nH]c2c1 [Example 4, 6-Fluoro-2-{4-[4-(4-[1,2,3]triazol-1-yl-butyl)-phenoxymethyl]-oxazol-2-yl}-1H-indole]
- IC50: 0.0001 to 0.05 µM

SMILES: Cc1cc(OCc2coc(-c3cc4ccc(F)cc4[nH]3)n2)ccc1CCCCn1ccnn1 [Example 8, 6-Fluoro-2-{4-[3-methyl-4-(4-[1,2,3]triazol-1-yl-butyl)-phenoxymethyl]-oxazol-2-yl}-1H-indole]
- IC50: 0.0001 to 0.05 µM

SMILES: O=S(=O)(Cc1coc(-c2cc3cc(F)ccc3[nH]2)n1)c1ccc(CCCCn2ccnn2)cc1 [Example 21, 5-Fluoro-2-{4-[4-(4-[1,2,3]triazol-1-yl-butyl)-benzenesulfonylmethyl]-oxazol-2-yl}-1H-indole]
- IC50: 0.05 to 0.5 µM

SMILES: Clc1ccc2[nH]c(-c3nc(COc4ccc(COCCn5ccnn5)cc4)co3)cc2c1 [Example 10, 5-Chloro-2-{4-[4-(2-[1,2,3]triazol-1-yl-ethoxymethyl)-phenoxymethyl]-oxazol-2-yl}-1H-indole]
- IC50: 0.0001 to 0.05 µM

SMILES: Cc1cc(OCc2coc(-c3cc4cc(F)ccc4[nH]3)n2)ccc1COCCn1ccnn1 [Example 40, 5-Fluoro-2-{4-[3-methyl-4-(2-[1,2,3]triazol-1-yl-ethoxymethyl)-phenoxymethyl]-oxazol-2-yl}-1H-indole]
- IC50: 0.0001 to 0.05 µM

SMILES: Fc1cc(CCCCn2ccnn2)ccc1NCc1coc(-c2cc3cc(Cl)ccc3[nH]2)n1 [Example 35, [2-(5-Chloro-1H-indol-2-yl)-oxazol-4-ylmethyl]-[2-fluoro-4-(4-[1,2,3]triazol-1-yl-butyl)-phenyl]-amine]
- IC50: 0.05 to 0.5 µM

SMILES: Fc1ccc2[nH]c(-c3nc(COc4ccc(COCCn5ccnn5)cc4)co3)cc2c1 [Example 11, 5-Fluoro-2-{4-[4-(2-[1,2,3]triazol-1-yl-ethoxymethyl)-phenoxymethyl]-oxazol-2-yl}-1H-indole]
- IC50: 0.0001 to 0.05 µM

SMILES: Clc1ccc2[nH]c(-c3nc(COc4ccc(CCCCn5ccnn5)cc4)cs3)cc2c1 [Example 17, 5-Chloro-2-{4-[4-(4-[1,2,3]triazol-1-yl-butyl)-phenoxymethyl]-thiazol-2-yl}-1H-indole]
- IC50: 0.0001 to 0.05 µM

SMILES: Fc1cc(NCc2coc(-c3cc4cc(Cl)ccc4[nH]3)n2)ccc1CCCCn1ccnn1 [Example 33, [2-(5-Chloro-1H-indol-2-yl)-oxazol-4-ylmethyl]-[3-fluoro-4-(4-[1,2,3]triazol-1-yl-butyl)-phenyl]-amine]
- IC50: 0.0001 to 0.05 µM

SMILES: [O-][S+](CCn1ccnn1)Cc1ccc(OCc2coc(-c3cc4cc(Cl)ccc4[nH]3)n2)cc1 (stereo not drawn) [Example 12, 5-Chloro-2-{4-[4-(2-[1,2,3]triazol-1-yl-ethanesulfinylmethyl)-phenoxymethyl]-oxazol-2-yl}-1H-indole]
- IC50: 0.5 to 1 µM

SMILES: Fc1ccc2[nH]c(-c3nc(CNc4ccc(CCCCn5ccnn5)cc4)co3)cc2c1 [Example 24, [2-(5-Fluoro-1H-indol-2-yl)-oxazol-4-ylmethyl]-[4-(4-[1,2,3]triazol-1-yl-butyl)-phenyl]-amine]
- IC50: 0.037 µM

SMILES: FC(F)(F)Oc1ccc2[nH]c(-c3nc(CNc4ccc(CCCCn5ccnn5)cc4)co3)cc2c1 [Example 22, [4-(4-[1,2,3]Triazol-1-yl-butyl)-phenyl]-[2-(5-trifluoromethoxy-1H-indol-2-yl)-oxazol-4-ylmethyl]-amine]
- IC50: 0.05 to 0.5 µM
